In ChEMBL document CHEMBL4043087 (J Med Chem, 2017):

Key:
Rattus norvegicus [1] = species on record: Rattus norvegicus; experiment: Displacement of [35S]TBPS from GABAA receptor in Wistar rat cerebral cortex membranes after 3 hrs by scintillation counting method; conditions: Membrane
Rattus norvegicus [2] = species on record: Rattus norvegicus; experiment: Displacement of [35S]TBPS from GABAA receptor in Wistar rat cerebral cortex membranes at 10 uM after 3 hrs by scintillation counting method; conditions: Membrane
Rattus norvegicus [3] = species on record: Rattus norvegicus; experiment: Displacement of [35S]TBPS from GABAA receptor in Wistar rat cerebral cortex membranes at 1 uM after 3 hrs by scintillation counting method; conditions: Membrane
Mus musculus [4] = experiment: Anesthetic activity in iv dosed ICR mouse assessed as onset time for loss of righting reflex administered 7 to 8 doses at 10 secs for each dose; assay type: functional
Mus musculus [5] = experiment: Anesthetic activity in iv dosed ICR mouse assessed as anesthetic duration time administered 7 to 8 doses at 10 secs for each dose; assay type: functional
Mus musculus [6] = experiment: Anesthetic activity in iv dosed ICR mouse assessed as recovery time of righting reflex by measuring the ability to grip and climb a steel frame and ambulated normally administered 7 to 8 doses at 10 secs for each dose; assay type: functional
Mus musculus [7] = experiment: Anesthetic activity in iv dosed ICR mouse assessed as dose required to produce 10 min of anesthesia administered 7 to 8 doses at 10 secs for each dose; assay type: functional
Mus musculus [8] = experiment: Anesthetic activity in iv dosed ICR mouse assessed as loss of righting reflex administered 7 to 8 doses at 10 secs for each dose; assay type: functional
[9] = Toxicity in iv dosed ICR mouse administered 7 to 8 doses at 10 secs for each dose; assay type: organism-based; conditions: in vivo
Mus musculus [10] = experiment: Anesthetic activity in mouse model assessed as loss of righting reflex; assay type: functional
[11] = Toxicity in mouse; assay type: organism-based; conditions: in vivo
[12] = Therapeutic index, ratio of LD50 for toxicity in mouse to ED50 for anesthetic effect in mouse
[13] = Volume of distribution at steady state in Sprague-Dawley rat at 1 mg/kg, iv by LC-MS/MS analysis; assay type: ADME, organism-based; conditions: in vivo, read-out: Vdss
Rattus norvegicus [14] = experiment: Cmax in Sprague-Dawley rat at 1 mg/kg, iv by LC-MS/MS analysis; assay type: ADME, organism-based; set-up: dose 1 mg/kg, route intravenous; conditions: in vivo
Rattus norvegicus [15] = species on record: Rattus norvegicus; conditions: in vivo, iv, 1 mg/kg

Compound	inhibition (Rattus norvegicus [1])	inhibition (Rattus norvegicus [2]) [%]	inhibition (Rattus norvegicus [3]) [%]	Time (Mus musculus [4]) [s]	Time (Mus musculus [5]) [s]	Time (Mus musculus [6]) [s]	Activity (Mus musculus [7]) [mg/kg]	ED50 (Mus musculus [8]) [mg/kg]	LD50 at 10 s [9] [mg/kg]	ED50 (Mus musculus [10]) [mg/kg]	LD50 [11] [mg/kg]	Ratio LD50/ED50 [12]	Vd [13] [L/kg]	Cmax (Rattus norvegicus [14]) [ng/mL]	AUCt (Rattus norvegicus [15]) [ng·h/mL]
CCC(C)c1cccc(C(C)C2CC2)c1O (racemic)	Dose-dependent effect	74	-3	<10	418.14	130.71	20								
CC(C)c1cccc([C@@H](C)C2CC2)c1O	Dose-dependent effect	9	3	5.71	344	168.33	30	7.9	50						
CC[C@H](C)c1cccc([C@@H](C)C2CC2)c1O	Dose-dependent effect	47	5	<10	643.4	224	10								
CC[C@@H](C)c1cccc([C@H](C)CC)c1O	Dose-dependent effect	29	0	18	459.83	39.83	10	2.69	23.8						
CC(c1cccc(C(C)C2CC2)c1O)C1CC1 (racemic)	Dose-dependent effect	91	13	<10	563.63	233.83			> 15						
CC(c1cccc(C2(C)CC2)c1O)C1CC1 (racemic)				9.5	365.75	306.13	45		40						
CC[C@H](C)c1cccc([C@H](C)C2CC2)c1OCOP(=O)([O-])[O-].[Na+].[Na+]										24.3	91.8	3.8			
CCc1cccc(C(C)C2CC2)c1O (racemic)				<10	409.57	226.57		7.7	57.1						
CC[C@@H](C)c1cccc([C@@H](C)C2CC2)c1O	Dose-dependent effect	63	-1	<10	418	192.33	4	1.3	8.3						
CCC(c1cccc(C(C)C2CC2)c1O)C1CC1 (racemic)				7.5	670.13	205.8	20	9	74.7						
CC(C)c1cccc([C@@H](C)C2CCC2)c1O				15.63	450.43	191.8	100		107						
Cc1cccc(C(C)C2CC2)c1O (racemic)				<10	198.33	122		7.4	54.9						
CC[C@@H](C)c1cccc([C@H](C)C2CC2)c1OCOP(=O)([O-])[O-].[Na+].[Na+]										15.9	63.7	4			
CC(C)c1cccc(C(C)C2CCC2)c1O (racemic)				43.5	364	46			40						
CC(C)c1cccc(C(C2CC2)C2CC2)c1O				<10	2616.4	220.17	50		> 100						
CC(C)c1cccc([C@@H](C)C2CC2)c1OCOP(=O)([O-])[O-].[Na+].[Na+]										82.7		4.5			
C[C@H](c1cccc([C@H](C)C2CC2)c1OCOP(=O)([O-])[O-])C1CC1.[Na+].[Na+]										35.8		4			
CC(C)c1cccc(C(C)C2CC2)c1O (racemic)	Dose-dependent effect	3		<10	518.5	78	10								
C[C@H](c1cccc([C@@H](C)C2CC2)c1OCOP(=O)([O-])[O-])C1CC1.[Na+].[Na+]										94.7		2.9			
COc1cccc(C(C)C2CC2)c1O (racemic)				<10	364.14	79		7.4							
CC(C)c1cccc(C(C)C)c1O [PROPOFOL]	Dose-dependent effect	10		<10	303.2	50	25						5.23	384	76.9
CC(c1cccc(C2CC2)c1O)C1CC1 (racemic)				<10	500.67	193.63		14.6	80						
CC(c1cccc(C(C2CC2)C2CC2)c1O)C1CC1 (racemic)				<10	761.33	326.5	20	9.8	98.2						
C[C@H](c1cccc([C@H](C)C2CC2)c1O)C1CC1	Dose-dependent effect	78	-5	<10	492.17	24.5	20	5.9	43.6						
CC(C)c1cccc(C(C)C2CCCC2)c1O (racemic)				5	737.33	441.6	40	19.9	115						
CCC(c1cccc(C(C)C)c1O)C1CC1 (racemic)				13.6	523.57	50.38		6.2	53.2						
C[C@H](c1cccc([C@@H](C)C2CC2)c1O)C1CC1	Dose-dependent effect	35		7	567.33	150.8	40	19.5	149						
CC[C@H](C)c1cccc([C@H](C)C2CC2)c1O	Dose-dependent effect	34	-9	<10	545	363.67	20		65.4						
CC(C)c1cccc([C@H](C)C2CCC2)c1O				<10	443.5	89.11									
CC(c1ccccc1O)C1CC1 (racemic)				<10	598	329.6	30	14	64.8						
